Values quoted from earlier work in patent EP2535049A1 (Proyecto de Biomedicina Cima, S.L., priority 2011, dated 2012).

Conditions: Kulkarni and Patil 2004; Forgue et al., 2006; cited from earlier work

SMILES: CCCc1nc(C)c2c(=O)[nH]c(-c3cc(S(=O)(=O)N4CCN(CC)CC4)ccc3OCC)nn12 [vardenafil]
- half-life in blood serum: 3.4 h
